Biological target: human RIP1 kinase domain (2-375) (Homo sapiens (Human), UniProt Q13546)
Assay: biochemical
Conditions: RIP1 kinase inhibition, tight-binding apparent Ki, 50 nM enzyme, 50 μM ATP, 2 hours incubation
Procedure: RIP1 Kinase Inhibition Assays (Biochemical Assay)
The ability of the receptor interacting protein kinase (RIPK1) to catalyze the hydrolysis of adenosine-5′-triphosphate (ATP) is monitored using the Transcreener ADP (adenosine-5′-diphosphate) assay (BellBrook Labs). Purified human RIP1 kinase domain (2-375) (50 nM) derived from a baculovirus-infected insect cell expression system is incubated with test compounds for 2 hours in 50 mM Hepes buffer (pH 7.5) containing 30 mM MgCl2, 1 mM dithiothreitol, 50 μM ATP, 0.002% Brij-35, and 0.5% dimethyl sulfoxide (DMSO). […] The tracer bound to the antibody is displaced by the ADP generated during the RIP1K reaction, which causes a decrease in fluorescence polarization that is measured by laser excitation at 633 nm with a FP microplate reader M1000. Fractional activity was plotted against test article concentration. Using Genedata Screener software (Genedata; Basel, Switzerland), the data were fit to the tight-binding apparent inhibition constant (Ki^app) Morrison equation [Williams, J. W. and Morrison, J. F. (1979) The kinetics of reversible tight-binding inhibition. […] The following equation was used to calculate fractional activity and Ki^app:
[formula] where [E]T and [I]T are the total concentrations of active enzyme and test article, respectively.

Chain of human RIP1 kinase domain (2-375) (Q13546 2-375): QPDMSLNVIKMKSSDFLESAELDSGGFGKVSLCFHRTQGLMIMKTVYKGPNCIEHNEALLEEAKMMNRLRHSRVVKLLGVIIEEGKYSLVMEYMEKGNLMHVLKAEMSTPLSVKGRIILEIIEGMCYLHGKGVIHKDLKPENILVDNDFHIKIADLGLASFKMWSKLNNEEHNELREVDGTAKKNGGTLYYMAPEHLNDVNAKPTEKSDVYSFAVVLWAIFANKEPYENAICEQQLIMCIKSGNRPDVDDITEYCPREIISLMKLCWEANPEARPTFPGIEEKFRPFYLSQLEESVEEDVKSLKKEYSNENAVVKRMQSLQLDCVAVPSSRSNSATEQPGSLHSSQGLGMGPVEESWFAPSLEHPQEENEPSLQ

Ki	Structure (SMILES)
< 0.005 µM	COCC(C)(C)C(=O)c1nc2n(n1)[C@H](c1ccccc1)C[C@@H]2F (racemic) [Example 133, 3-methoxy-2,2-dimethyl-1-[rac-(5S,7S)-7-fluoro-5-phenyl-6,7-dihydro-5H-pyrrolo[1,2-b][1,2,4]triazol-2-yl]propan-1-one]
0.91 µM	[2H][C@@]1(Cl)C[C@@H](c2ccccc2)n2nc(C(=O)C3CC3)nc21 (racemic) [Example 120, cyclopropyl-[rac-(5S,7R)-7-chloro-7-deuterio-5-phenyl-5,6-dihydropyrrolo[1,2-b][1,2,4]triazol-2-yl]methanone]
0.0079 µM	[2H][C@]1(F)C[C@@H](c2ccccc2)n2nc(C(=O)C3CC3)nc21 (single isomer, unassigned) [Example 103]
< 0.005 µM	O=C(c1nc2n(n1)[C@H](c1ccccc1)C[C@@H]2F)[C@H]1CCOC1 (racemic) [Example 131, [rac-(5S,7S)-7-fluoro-5-phenyl-6,7-dihydro-5H-pyrrolo[1,2-b][1,2,4]triazol-2-yl]-[rac-(3S)-tetrahydrofuran-3-yl]methanone]
0.036 µM	[2H][C@]1(Cl)C[C@@H](c2ccccc2)n2nc(C(=O)C3CC3)nc21 (racemic) [Example 119, cyclopropyl-[rac-(5S,7S)-7-chloro-7-deuterio-5-phenyl-5,6-dihydropyrrolo[1,2-b][1,2,4]triazol-2-yl]methanone]
0.18 µM	O=C(CC1CCCCO1)c1nc2n(n1)[C@H](c1ccccc1)C[C@@H]2F (mixture of isomers) [Example 135, 1-[rac-(5S,7S)-7-fluoro-5-phenyl-6,7-dihydro-5H-pyrrolo[1,2-b][1,2,4]triazol-2-yl]-2-tetrahydropyran-2-yl-ethanone]
0.057 µM	O=C(c1nc2n(n1)[C@H](c1ccccc1)C[C@@H]2F)C1CCOCC1 (racemic) [Example 126, [rac-(5S,7S)-7-fluoro-5-phenyl-6,7-dihydro-5H-pyrrolo[1,2-b][1,2,4]triazol-2-yl]-tetrahydropyran-4-yl-methanone]
0.36 µM	CC(F)(F)[C@@H]1C[C@H](F)c2nc(C(=O)C3CC3)nn21 (racemic) [Example 122, cyclopropyl-[rac-(5S,7S)-5-(1,1-difluoroethyl)-7-fluoro-6,7-dihydro-5H-pyrrolo[1,2-b][1,2,4]triazol-2-yl]methanone]
< 0.005 µM	O=C(c1nc2n(n1)[C@H](c1ccccc1)C[C@@H]2F)[C@@]12COC[C@@H]1C2 (racemic) [Example 143, [rac-(5S,7S)-7-fluoro-5-phenyl-6,7-dihydro-5H-pyrrolo[1,2-b][1,2,4]triazol-2-yl]-[rac-(1R,5R)-3-oxabicyclo[3.1.0]hexan-1-yl]methanone]
0.0037 µM	C[C@H]1C[C@@H]1C(=O)c1nc2n(n1)[C@H](c1ccccc1)C[C@@H]2F (mixture of isomers) [Example 75, [(5S,7S)-7-fluoro-5-phenyl-6,7-dihydro-5H-pyrrolo[1,2-b][1,2,4]triazol-2-yl]-[rac-(1S,2S)-2-methylcyclopropyl]methanone]
0.047 µM	CC1(C(=O)c2nc3n(n2)[C@H](c2ccccc2)C[C@@H]3F)CCCO1 (mixture of isomers) [Example 129, (2-methyltetrahydrofuran-2-yl)-[rac-(5S,7S)-7-fluoro-5-phenyl-6,7-dihydro-5H-pyrrolo[1,2-b][1,2,4]triazol-2-yl]methanone]
< 0.005 µM	O=C(c1nc2n(n1)[C@H](c1ccccc1)C[C@@H]2F)[C@@H]1CCOC1 (racemic) [Example 132, [rac-(5S,7S)-7-fluoro-5-phenyl-6,7-dihydro-5H-pyrrolo[1,2-b][1,2,4]triazol-2-yl]-[rac-(3R)-tetrahydrofuran-3-yl]methanone]
0.0082 µM	[2H][C@H]1C[C@@H](c2ccccc2)n2nc(C(=O)C3CC3)nc21 (single isomer, unassigned) [Example 111]
0.02 µM	O=C(c1cc2n(n1)[C@H](c1ccccc1)C[C@@H]2F)C1CC1 (racemic) [Example 78, cyclopropyl-[rac-(4S,6S)-4-fluoro-6-phenyl-5,6-dihydro-4H-pyrrolo[1,2-b]pyrazol-2-yl]methanone]
0.032 µM	O=C(CC1CCOCC1)c1nc2n(n1)[C@H](c1ccccc1)C[C@@H]2F (racemic) [Example 136, 1-[rac-(5S,7S)-7-fluoro-5-phenyl-6,7-dihydro-5H-pyrrolo[1,2-b][1,2,4]triazol-2-yl]-2-tetrahydropyran-4-yl-ethanone]
0.22 µM	O=C(c1nc2n(n1)[C@H](c1ccccc1)C[C@@H]2F)[C@H](O)C(F)(F)F (racemic) [Example 134, rac-(2S)-3,3,3-trifluoro-2-hydroxy-1-[rac-(5S,7S)-7-fluoro-5-phenyl-6,7-dihydro-5H-pyrrolo[1,2-b][1,2,4]triazol-2-yl]propan-1-one]
0.004 µM	CCC1(C(=O)c2nc3n(n2)[C@H](c2ccccc2)C[C@@H]3F)CC1 (racemic) [Example 125, (1-ethylcyclopropyl)-[rac-(5S,7S)-7-fluoro-5-phenyl-6,7-dihydro-5H-pyrrolo[1,2-b][1,2,4]triazol-2-yl]methanone]
< 0.005 µM	C[C@]1(C(=O)c2nc3n(n2)[C@H](c2ccccc2)C[C@@H]3F)CCOC1 (racemic) [Example 138, [rac-(5S,7S)-7-fluoro-5-phenyl-6,7-dihydro-5H-pyrrolo[1,2-b][1,2,4]triazol-2-yl]-[rac-(3S)-3-methyltetrahydrofuran-3-yl]methanone]
0.009 µM	O=C(COC(F)(F)F)c1nc2n(n1)[C@H](c1ccccc1)C[C@@H]2F (racemic) [Example 142, 1-[rac-(5S,7S)-7-fluoro-5-phenyl-6,7-dihydro-5H-pyrrolo[1,2-b][1,2,4]triazol-2-yl]-2-(trifluoromethoxy)ethanone]

Same assay, conditions: tight-binding apparent inhibition constant (Ki app, Morrison equation), 50 nM enzyme, 50 μM ATP, 2 hours incubation

Ki	Structure (SMILES)
2.83 µM	CC(C)(C)C(=O)c1nc2n(n1)[C@H](c1ccccc1)C[C@@H]2F (stereo in doubt) [Example 37, 2,2-dimethyl-1-[rac-(5S,7S)-7-fluoro-5-phenyl-6,7-dihydro-5H-pyrrolo[1,2-b][1,2,4]triazol-2-yl]propan-1-one]
0.00417 µM	CC(C)(C)C(=O)c1nc2n(n1)[C@@H](c1ccccc1)C[C@H]2F (stereo in doubt) [Example 38, 2,2-dimethyl-1-[rac-(5R,7R)-7-fluoro-5-phenyl-6,7-dihydro-5H-pyrrolo[1,2-b][1,2,4]triazol-2-yl]propan-1-one]
0.03 µM	CC1(C(=O)c2nc3n(n2)[C@H](c2ccccc2)C[C@@H]3F)COC1 (racemic) [Example 15, (rac-(5S,7S)-7-fluoro-5-phenyl-6,7-dihydro-5H-pyrrolo[1,2-b][1,2,4]triazol-2-yl)-(3-methyloxetan-3-yl)methanone]
0.134 µM	O=C(CC(F)(F)F)c1nc2n(n1)[C@@H](c1ccccc1)C[C@H]2F (racemic) [Example 29, 3,3,3-trifluoro-1-[rac-(5R,7R)-7-fluoro-5-phenyl-6,7-dihydro-5H-pyrrolo[1,2-b][1,2,4]triazol-2-yl]propan-1-one]
0.0188 µM	O=C(c1nc2n(n1)[C@H](c1ccccc1)C[C@@H]2F)C1CCCC1 (racemic) [Example 36, cyclopentyl--(rac-(5S,7S)-7-fluoro-5-phenyl-6,7-dihydro-5H-pyrrolo[1,2-b][1,2,4]triazol-2-yl)methanone]
2.36 µM	O=C(c1ccccn1)c1nc2n(n1)[C@H](c1ccccc1)C[C@@H]2F (racemic) [Example 33, (rac-(5S,7S)-7-fluoro-5-phenyl-6,7-dihydro-5H-pyrrolo[1,2-b][1,2,4]triazol-2-yl)-(2-pyridyl)methanone]
0.221 µM	O=C(c1nc2n(n1)[C@H](c1ccccc1)C[C@@H]2F)C1C2COCC21 (mixture of isomers) [Example 56, 3-oxabicyclo[3.1.0]hexan-6-yl-[rac-(5S,7S)-7-fluoro-5-phenyl-6,7-dihydro-5H-pyrrolo[1,2-b][1,2,4]triazol-2-yl]methanone]
0.00356 µM	CCC(=O)c1nc2n(n1)[C@H](c1ccccc1)C[C@@H]2F (racemic) [Example 47, 1-[rac-(5S,7S)-7-fluoro-5-phenyl-6,7-dihydro-5H-pyrrolo[1,2-b][1,2,4]triazol-2-yl]propan-1-one]
> 9.4 µM	O=C(c1nc2n(n1)[C@@H](c1ccccc1)C[C@H]2F)C1CC1 (stereo in doubt) [Example 35, cyclopropyl-[rac-(5R,7R)-7-fluoro-5-phenyl-6,7-dihydro-5H-pyrrolo[1,2-b][1,2,4]triazol-2-yl]methanone]
0.235 µM	O=C(c1nc2n(n1)[C@@H](c1ccccc1)C[C@@H]2F)C1CC1 (racemic) [Example 18, cyclopropyl-[rac-(5R,7S)-7-fluoro-5-phenyl-6,7-dihydro-5H-pyrrolo[1,2-b][1,2,4]triazol-2-yl]methanone]
0.0224 µM	O=C(c1nc2n(n1)[C@H](c1ccccc1)C[C@@H]2F)C1(F)CC1 (racemic) [Example 53, (1-fluorocyclopropyl)-(rac-(5S,7S)-7-fluoro-5-phenyl-6,7-dihydro-5H-pyrrolo[1,2-b][1,2,4]triazol-2-yl)methanone]
0.0112 µM	O=C(c1nc2n(n1)[C@H](c1ccccc1)C[C@@H]2F)C1(C(F)(F)F)CC1 (racemic) [Example 14, (rac-(5S,7S)-7-fluoro-5-phenyl-6,7-dihydro-5H-pyrrolo[1,2-b][1,2,4]triazol-2-yl)-[1-(trifluoromethyl)cyclopropyl]methanone]
0.0212 µM	O=C(c1ccccc1)c1nc2n(n1)[C@H](c1ccccc1)C[C@@H]2F (racemic) [Example 12, phenyl-[rac-(5S,7S)-7-fluoro-5-phenyl-6,7-dihydro-5H-pyrrolo[1,2-b][1,2,4]triazol-2-yl]methanone]
0.225 µM	Cn1cc(C(=O)c2nc3n(n2)[C@@H](c2ccccc2)C[C@H]3F)cn1 (stereo in doubt) [Example 39, (1-methylpyrazol-4-yl)-[rac-(5R,7R)-7-fluoro-5-phenyl-6,7-dihydro-5H-pyrrolo[1,2-b][1,2,4]triazol-2-yl]methanone]
0.0767 µM	CC(=O)c1nc2n(n1)[C@@H](c1ccccc1)C[C@H]2F (racemic) [Example 50, 1-[rac-(5R,7R)-7-fluoro-5-phenyl-6,7-dihydro-5H-pyrrolo[1,2-b][1,2,4]triazol-2-yl]ethanone]
